Reference: paper PMC10644342, “Improved Antibacterial Activity of 1,3,4-Oxadiazole-Based Compounds That Restrict Staphylococcus aureus Growth Independent of LtaS Function” (ACS Infectious Diseases, 2023)
Peptide text beside a SMILES is read from it. * marks the point of attachment. βNA = c1ccc2cc(N*)ccc2c1

Experiments:
[1] = test system: E. coli strain K12; experiment: Growth inhibition in combination with PAβN; type: cell-based, Escherichia coli; settings: PAβN alone up to 100 μg/mL
Experimental: Phenylalanine-arginine β-naphthylamide (PAβN) is a well-studied efflux pump inhibitor, which can also permeabilize the outer membrane of Gram-negative organisms.[40] […] Without the addition of PAβN (0 μg/mL), neither 1771 nor 13 had any growth inhibitory activity at concentrations up to 64 μg/mL. With the addition of 25 μg/mL of PAβN, the E. coli strain K12 could still grow in the presence of 64 μg/mL of 1771 or 13; however, the growth rate was severely impacted in a dose-dependent manner. […] To further evaluate the Gram-negative coverage of 1771 and 13, we also tested 1771 or 13 in combination with PAβN against Pseudomonas aeruginosa strain PAO1, Klebsiella pneumoniae strain 699 (clinical isolate), and Acinetobacter baumannii strain DF1000 (clinical isolate) (Figure S6a–c).
Figure 8 Permeabilization of the outer membrane renders E. coli susceptible to 1771 and 13. Bacterial growth curves of (a) 1771 and (b) 13 (0–64 μg/mL) in combination with 0, 25, 50, and 100 μg/mL of PAβN. The bacterial growth (OD600nm) was plotted against time following 18 h of growth at 37 °C. The icons represent the mean of three biological replicates.

[2] = test system: LTA; experiment: LTA quantification by Western blot; type: cell-based, Staphylococcus aureus; settings: strain LAC, 1× and 4× the MIC
Experimental: Overnight cultures of S. aureus strains were diluted 1:200 in fresh TSB and grown to an optical density of OD600nm 0.3. […] Vancomycin and daptomycin at 1× and 4× MIC were also included as control antibiotics. Cells were then normalized to have 10 mL of OD600nm 0.6, pelleted at 4000 rpm, and resuspended in 300 μL of PBS containing 200 μg/mL lysostaphin. This suspension was then incubated at 37 °C for 45 min to allow digestion of the cell wall to occur. One hundred microlitres of 4× SDS sample buffer were then added, and the mixture was boiled at 95 °C for 20 min. The insoluble material was then removed by pelleting at 16,000 rpm for 10 min. The supernatant containing LTA was then subjected to SDS-PAGE on a 4–20% Tris-glycine gel (Bio-Rad). The gel was transferred onto a PVDF membrane using a Trans-Blot Turbo Transfer System (Bio-Rad). The membrane was blocked overnight in TBST containing 5% semi-skimmed milk before being incubated with a mouse anti-LTA antibody (Hycult; HM2048; 1:2000 dilution) followed by a goat antimouse-HRP secondary antibody (Proteintech; SA00001; 1:2000 dilution) before being visualized using an Amersham-ECL kit (Cytiva).

[3] = test system: HL-60 cell line; settings: antibiotics used in the training set, Table S2; cited from earlier work

Row | SMILES | impact on growth [1] | LTA signal by Western blot [2] | Cell health index (CHI) [3]
1 | NC(N)=NCCC[C@H](NC(=O)[C@@H](N)Cc1ccccc1)C(=O)Nc1ccc2ccccc2c1 [PAβN, Phenylalanine-arginine β-naphthylamide] (H-Phe-Arg-βNA) | very limited impact on growth |  | 
2 | CCCCCCCCCC(=O)N[C@@H](Cc1c[nH]c2ccccc12)C(=O)N[C@H](CC(N)=O)C(=O)N[C@@H](CC(=O)O)C(=O)N[C@@H]1C(=O)NCC(=O)N[C@@H](CCCN)C(=O)N[C@@H](CC(=O)O)C(=O)N[C@H](C)C(=O)N[C@@H](CC(=O)O)C(=O)NCC(=O)N[C@H](CO)C(=O)N[C@@H]([C@H](C)CC(=O)O)C(=O)N[C@@H](CC(=O)c2ccccc2N)C(=O)O[C@@H]1C [daptomycin] |  | No reduction in LTA | 
3 | Cc1c(N)cccc1Cn1ccc(OCCc2cccs2)cc1=O [nilofabicin] |  | substantial decrease in LTA production | 
4 | Oc1cc(Cl)ccc1Oc1ccc(Cl)cc1Cl [triclosan] |  | substantial decrease in LTA production | 
5 | CN[C@H](CC(C)C)C(=O)N[C@H]1C(=O)N[C@@H](CC(N)=O)C(=O)N[C@H]2C(=O)N[C@H]3C(=O)N[C@H](C(=O)N[C@H](C(=O)O)c4cc(O)cc(O)c4-c4cc3ccc4O)[C@H](O)c3ccc(c(Cl)c3)Oc3cc2cc(c3O[C@@H]2O[C@H](CO)[C@@H](O)[C@H](O)[C@H]2O[C@H]2C[C@](C)(N)[C@H](O)[C@H](C)O2)Oc2ccc(cc2Cl)[C@H]1O [vancomycin] |  | No reduction in LTA | 0.16
